Results from ChEMBL document CHEMBL4000226, “Inhibitory potential of flavonoids on PtdIns(3,4,5)P3 binding with the phosphoinositide-dependent kinase 1 pleckstrin homology domain” (Bioorg Med Chem Lett, 2017).
Active and inactive are the calls of the source. No cut-off for these calls is given here.

target: 3-phosphoinositide-dependent protein kinase 1 (Homo sapiens) (UniProt O15530); assay: Inhibition of sucrose loaded POPC/POPE/POPS/PtdIns(3,4,5)P3 (59:20:20:1) liposome binding to eGFP-fused PDK1 PH domain (unknown origin) expressed in Escherichia coli BL21 at 10 uM after 10 mins by fluorescence spectrophotometry based pull down assay
Sequence (O15530 whole entry, looked up, the tested form may be a part): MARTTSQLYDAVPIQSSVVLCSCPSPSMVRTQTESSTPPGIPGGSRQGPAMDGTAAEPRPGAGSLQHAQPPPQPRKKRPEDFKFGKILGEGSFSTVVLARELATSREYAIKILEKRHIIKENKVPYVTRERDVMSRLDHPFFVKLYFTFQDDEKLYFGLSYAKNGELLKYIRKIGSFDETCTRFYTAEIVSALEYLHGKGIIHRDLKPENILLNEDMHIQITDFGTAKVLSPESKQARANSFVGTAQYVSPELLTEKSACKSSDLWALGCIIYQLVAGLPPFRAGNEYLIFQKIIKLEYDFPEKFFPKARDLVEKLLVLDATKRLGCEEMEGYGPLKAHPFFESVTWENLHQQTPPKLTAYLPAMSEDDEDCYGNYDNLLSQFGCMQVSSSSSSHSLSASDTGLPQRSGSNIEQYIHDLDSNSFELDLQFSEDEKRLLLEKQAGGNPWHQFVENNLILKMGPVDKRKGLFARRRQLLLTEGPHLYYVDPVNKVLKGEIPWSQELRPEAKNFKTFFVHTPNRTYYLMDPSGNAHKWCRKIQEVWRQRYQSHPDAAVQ

Compound	inhibition
COc1cc(OC)c2c(=O)cc(-c3ccccc3)oc2c1	Active
O=c1cc(-c2ccccc2)oc2ccccc12	Active
COc1ccc2c(=O)cc(-c3ccccc3)oc2c1OC	Active
O=c1c(O)c(-c2ccc(O)c(O)c2)oc2cc(O)ccc12	Active
O=c1cc(-c2ccccc2)oc2cc(O)cc(O)c12	Active
O=c1cc(-c2ccc(O)cc2)oc2cc(O)ccc12	Active
O=c1c(O)c(-c2ccccc2)oc2cc(O)cc(O)c12	Active

target: 3-phosphoinositide-dependent protein kinase 1 (Homo sapiens) (UniProt O15530); assay: Inhibition of sucrose loaded POPC/POPE/POPS/PtdIns(3,4,5)P3 (59:20:20:1) liposome binding to eGFP-fused PDK1 PH domain (unknown origin) expressed in Escherichia coli BL21 after 10 mins by fluorescence spectrophotometry based pull down assay

Compound	inhibition
O=c1c(O)c(-c2ccc(O)c(O)c2)oc2c(O)c(O)cc(O)c12	Dose-dependent effect
O=c1c(O)c(-c2ccc(O)c(O)c2)oc2cc(O)ccc12	Dose-dependent effect
O=c1c(O)c(-c2ccc(O)c(O)c2)oc2cc(O)cc(O)c12	Dose-dependent effect
O=c1c(O)c(-c2cc(O)c(O)c(O)c2)oc2cc(O)cc(O)c12	Dose-dependent effect
